Laboratory results as given in patent publication US20190038602A1, “GRANZYME B INHIBITOR FORMULATIONS AND METHODS FOR THE TREATMENT OF BURNS” (viDA Therapeutics, Inc., priority 2016, published 2019).
“And” between values parts separate entries of the source, which are not always exact repeats. Identical values can stand only once.

Assays:
burn wound = assay: Burn wound healing in mice (deep partial thickness thermal injury, degree IIb); type: in vivo
Experimental: In the studies described herein, all mice were initially anesthetized using mixture of isoflurane/oxygen (Iso about 2-2.5%/oxygen flow rate of about 1.5-2 L/min) in an induction chamber, then moved to a Baines system with a 1-2.5%/1.5-2 L/min flow rate. During anesthesia the mice were placed on a warming pad with a nose cone over the mice to maintain the anesthetic state. The toe nails were trimmed with clippers. A metal rod (25 g, 1 cm in diameter) was heated to 95-100° C. by submersion in boiling water for 3-5 min. The rod was immediately positioned vertically for 6 seconds without additional pressure on the dorsal skin of mice that had also been depilated 3 days before wounding. This procedure induces a deep partial thickness thermal injury (degree IIb). The severity of the thermal injury is classified according to Exp Dermatol. 2010; 19(9):777-783.

[1] = Compound A concentration at saturation in penetration enhancer vehicles (UPLC); type: physicochemical
Experimental: Compound A was dissolved at saturation in various vehicles containing PE in pH 5 acetate buffer (see Table 2). An excess amount of Compound A and the corresponding vehicle were mixed by rotary mixer at room temperature for 24 hours and subsequent filtration through 0.22 μm cellulose acetate membrane. Concentration of Compound A was measured by UPLC.

[2] = Ex vivo pig ear skin permeation, Franz Diffusion Cell System; type: in vitro ADME; details: for Compound A in tape-stripped skin samples, Average: n=3; for Skin concentration (Compound A in tape-stripped skin, single replicates): listed as Compound A
Experimental: […] Formulations were delivered to the skin over a period of 6 hours and drug permeation was assessed by UPLC-MS/MS analysis of tape-stripped skin and receptor fluid. Receptor fluid samples were collected for analysis at 3 and 6 hour time points.
Compound A permeation through skin was assessed ex vivo by using pig ear skin and a Franz Diffusion Cell System (PermeGear®).
Fresh pig ears were obtained from female Yorkshire/Landrace crosses, between 3.5-5 months old, at Jack Bell Research Centre, Vancouver. Immediately after surgery, pig ears were removed and placed in a double Ziploc® bag and stored at −20° C. freezer until shipment to laboratory site on ice via courier the next day. Upon arrival at the site, pig ears were stored in a segregated container, labeled with harvest and shipment date, in −20° C. freezer and were used prior to their expiry date of 5 weeks. Pig skin was prepared according to “Preparation of Pig Skin Samples for ex vivo Permeation Assays.” Briefly, one day prior to the study, frozen ears were thawed washed with deionized water and blotted dry. After trimming off hair, surface skin was separated from cartilage and fat, and hole-punched into coin shape samples to fit dimensions of Franz cells. Pig ear samples were stored in a petri dish, sealed with parafilm tape, in double Ziploc® bags at −20° C. overnight prior to the study on the following day.
Set up of the diffusion cell system was performed according to “Setup, Operation and Cleaning Procedure for Franz Diffusion Cell System.” Prior to application of formulations, skin integrity of each skin sample was determined by measuring the electrical resistance. The electrical resistance was measured with a Model 878B Dual Display LCR Meter (BK Precision®) connected to two stainless steel electrodes, using a setting of 1 KHz. Measurements were taken at least 30 minutes after mounting skin samples to ensure temperature and humidity equilibration. The donor and receptor chamber were filled with 300 μL and 5 mL of pH 7.4 phosphate buffered saline (PBS), respectively, and both electrodes were immersed in solution without touching the skin membrane. Any skin membrane giving an electrical resistance below 4.0 kΩ was discarded and replaced.
Throughout the permeation assay, all cells were maintained at 32° C. and sink condition was maintained in the receptor fluid. Receptor chambers were filled with 4.75 mL of receptor fluid (pH 7.4 PBS) and were kept stirring for the entire duration of the experiment. Skin samples were mounted above the receptor chamber, in direct contact with the receptor fluid, and then donor chambers were mounted above the skin. Any air bubbles between the skin tissue and the receptor fluid were carefully removed prior to application of formulations. The appropriate formulation (300 μL) was added to the donor chamber and the opening of the cell was covered with Parafilm® to prevent evaporation of the test article. Three skin samples per formulation (N) were tested. Three components (receptor fluid, applied formulation and skin samples) were sampled for subsequent analysis. Receptor fluid was sampled at 3 and 6 hours (without volume replacement) and stored at −20° C. until analysis. At the end of the experiment, the applied formulation was recovered from the donor chamber and recorded as the unabsorbed dose. The skin was then blotted dry with a Kimwipe® and tape-stripped skin (12 tape strips) was obtained. The first tape strip (3M scotch tape) was used to remove excess of formulation remaining on the skin and was discarded. Then a total of 11 tape strips were used to partially remove the stratum corneum. These tape strips were kept in labeled glass vial. Then using a hole-puncher the section of skin exposed to the formulation was removed and the corresponding weight of the skin sample was recorded. All samples were stored at −20° C. until analysis. […]

[3] = Concentration of Compound A in skin after application of gel (FIG. 3B); details: 50 μL gel, 0.35% w/v Compound A
Experimental: FIG. 3A is an image of skin to which a volume (50 μL) of a representative formulation of the invention that includes Compound A was applied. The applied formulation (gel) includes Compound A at a concentration of 0.35% w/v in a vehicle containing propylene glycol (20% w/w), Carbopol 940 (0.5% w/v), methyl paraben (0.2% w/w), propyl paraben (0.02% w/w) and acetate buffer pH 5 (QS). Triethylamine was used to adjust the final formulation pH to 5-6.
(§1) FIG. 3B compares concentration of Compound A (μg/μL) in the skin at 4, 6, and 24 hours after application of a volume (50 μL) of a representative formulation of the invention that includes Compound A as described above for FIG. 3A.
as §1, with “FIG. 3A is an image of skin to which a volume (50 μL) of a representative formulation of the invention that includes Compound A was applied. FIG. 3B” for “FIG. 3B”

SMILES: CC[C@H](C)[C@H](NC(=O)CCC(=O)O)C(=O)NCC(=O)N1C(=O)N(C2CCCCC2)C[C@H]1C(=O)NCc1nn[nH]n1 [Compound 1A, 4-(((2S,3S)-1-((2-((S)-5-(((2H-tetrazol-5-yl)methyl)carbamoyl)-3-cyclohexyl-2-oxoimidazolidin-1-yl)-2-oxoethyl)amino)-3-methyl-1-oxopentan-2-yl)amino)-4-oxobutanoic acid]
- In vivo performance of gel (burn wound; 3.6 mg/mL gel, pH 6.0 with triethanolamine, compared with Compound 1 gel (triethylamine)): performance comparable to that of another representative formulation

SMILES: CC[C@H](C)[C@H](NC(=O)CCC(=O)O)C(=O)NCC(=O)N1C(=O)N(C2CCCCC2)C[C@H]1C(=O)NCc1nn[nH]n1 [Compound C2, 4-(((2S,3S)-1-((2-((S)-5-(((2H-tetrazol-5-yl)methyl)carbamoyl)-3-cyclohexyl-2-oxoimidazolidin-1-yl)-2-oxoethyl)amino)-3-methyl-1-oxopentan-2-yl)amino)-4-oxobutanoic acid]
- Compound A Concentration in Formulation ([1]; Water + 20% N-methyl-2-pyrollidone (NMP)): 1.13 mg/mL
- Compound A Concentration in Formulation ([1]; pH5 acetate buffer + 10% Transcutol (TC)): 2.99 mg/mL
- Compound A Concentration in Formulation ([1]; pH5 acetate buffer + 10% dimethylisosorbide (DMI)): 3.18 mg/mL
- Compound A Concentration in Formulation ([1]; pH5 acetate buffer + 10% urea): 3.04 mg/mL
- Compound A Concentration in Formulation ([1]; pH5 acetate buffer + 15% TWEEN 80): 1.56 mg/mL
- Compound A Concentration in Formulation ([1]; pH5 acetate buffer + 20% propylene glycol (PG), room temperature 24 hours): 2.82 mg/mL
- Compound A in tape-stripped skin samples, Average ([2]; Water + 20% N-methyl-2-pyrollidone (NMP), 6 hour exposure): 4846 ng/g
- Skin concentration (Compound A in tape-stripped skin, single replicates) ([2]; Water + 20% NMP, 6 h exposure): 4313 ng/g and 4985 ng/g and 5241 ng/g
- Skin concentration (Compound A in tape-stripped skin, single replicates) ([2]; pH5 acetate buffer + 10% DMI, 6 h exposure): 13975 ng/g and 6214 ng/g and 6311 ng/g
- Compound A in tape-stripped skin samples, Average ([2]; pH5 acetate buffer + 10% Dimethyl Isosorbide (DMI), 6 hour exposure): 8833 ng/g
- Skin concentration (Compound A in tape-stripped skin, single replicates) ([2]; pH5 acetate buffer + 10% TC, 6 h exposure): 5869 ng/g and 8886 ng/g and 1629 ng/g
- Compound A in tape-stripped skin samples, Average ([2]; pH5 acetate buffer + 10% Transcutol (TC), 6 hour exposure): 5461 ng/g
- Skin concentration (Compound A in tape-stripped skin, single replicates) ([2]; pH5 acetate buffer + 10% Urea, 6 h exposure): 5588 ng/g and 19422 ng/g and 2943 ng/g
- Compound A in tape-stripped skin samples, Average ([2]; pH5 acetate buffer + 10% Urea, 6 hour exposure): 9317 ng/g
- Skin concentration (Compound A in tape-stripped skin, single replicates) ([2]; pH5 acetate buffer + 15% Tw80, 6 h exposure): 4937 ng/g and 1968 ng/g and 4442 ng/g
- Compound A in tape-stripped skin samples, Average ([2]; pH5 acetate buffer + 15% Tween 80, 6 hour exposure): 3782 ng/g
- Skin concentration (Compound A in tape-stripped skin, single replicates) ([2]; pH5 acetate buffer + 20% PG, 6 h exposure): 4785 ng/g and 10012 ng/g and 6515 ng/g and 4784 ng/g
- Compound A in tape-stripped skin samples, Average ([2]; pH5 acetate buffer + 20% Propylene Glycol (PG), 6 hour exposure): 7104 ng/g
- Average skin concentrations ([2]; tape-stripped skin, 6 hours, span over the six formulations): 3700 to 9300 ng/g
- Burn wound healing (percent of original wound size, falling of scabs) (burn wound; subcutaneous injection, solution in PBS 0.56 mg/ml, vs saline, Day 0 to Day 30): attenuation of initial burn expansion in the zone of stasis and improved burn wound healing
- Quality of healed wound (epidermal thickness, decorin level, collagen level) (burn wound; topical gel): improves quality of healed wound
- Burn wound healing (percent of original wound size, falling of scabs) (burn wound; topical gel vs saline control): attenuation of initial burn expansion in the zone of stasis and improved burn wound healing
- Burn wound healing (percent of original wound size) (burn wound; topical gel vs vehicle control, repeated study, Day 0 to Day 24): attenuation of initial burn expansion in the zone of stasis and improved burn wound healing
- Stability and retention in skin (concentration at 4, 6 and 24 hours) [3]: stable and effectively retained in the skin
